# How the values were obtained:
# Format in all cases: cell-based
# PAR2 (HT-29 cells) [1] = target: T1, PAR2 (HT-29 cells) (Homo sapiens, UniProt P55085); test: Ca FLIPR TETRA assay, ANTAGONIST mode, activator 8 μM SLIGKV; conditions: HT-29 cells; activator 8 μM SLIGKV; Method A: maximal concentration of antagonist 0.1, 1 or 2 μM
# T1 construct: host or cells: HT-29
# T1 sequence (P55085 26-397): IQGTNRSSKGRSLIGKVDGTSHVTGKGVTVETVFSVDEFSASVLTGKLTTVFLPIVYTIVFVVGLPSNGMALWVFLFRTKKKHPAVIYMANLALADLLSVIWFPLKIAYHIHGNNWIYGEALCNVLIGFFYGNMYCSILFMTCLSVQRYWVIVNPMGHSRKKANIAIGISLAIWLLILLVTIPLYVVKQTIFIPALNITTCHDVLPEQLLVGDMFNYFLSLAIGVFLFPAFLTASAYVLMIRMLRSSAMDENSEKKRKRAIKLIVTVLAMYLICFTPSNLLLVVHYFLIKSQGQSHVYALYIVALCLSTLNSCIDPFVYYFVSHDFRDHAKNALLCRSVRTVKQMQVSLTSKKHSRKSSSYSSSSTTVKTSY
# Outline: (§1)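 Compounds are added to calcium 5-loaded HT-29 cells, read once for intrinsic Ca2+ activation, then incubated 30 min at room temperature. The same wells are then stimulated with a fixed final activator level and the Ca2+ response recorded on FLIPR Tetra.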
# [2] = test system: Thrombin-stimulated Ca2+ response in HT-29 cells; test: Ca FLIPR TETRA assay, ANTAGONIST mode, activator 1 U/mL Thrombin; conditions: HT-29 cells, activator 1 U/mL Thrombin
# Outline: as §1
# PAR2 (HT-29 cells) [3] = target: T1, PAR2 (HT-29 cells); test: Ca FLIPR TETRA assay, ANTAGONIST mode, activator 3.1 U/mL trypsin; conditions: HT-29 cells; activator 3.1 U/mL trypsin; Method A: maximal concentration of antagonist 0.1, 1 or 2 μM
# Outline: as §1
# [4] = test system: UTP-stimulated Ca2+ response in HT-29 cells; test: Ca FLIPR TETRA assay, ANTAGONIST mode, activator 0.6 μM UTP; conditions: HT-29 cells, activator 0.6 μM UTP
# Outline: as §1
SMILES,IC50 (PAR2 (HT-29 cells) [1]),IC50 ([2]; Homo sapiens),IC50 (PAR2 (HT-29 cells) [3]),IC50 ([4]; Homo sapiens),IC50 [2],IC50 [4]
CC(C)(C)c1cc(-c2ccc(Cl)c(F)c2)nc2cc(C(=O)N3CCN(c4ccccn4)C(=O)C3(C)C)oc12 [Example I-329],12 nM,> 2000 nM,13 nM,> 2000 nM,–,–
CC(C)(C)c1cc(-c2ccc(Cl)c(F)c2)nc2cc(C(=O)N3CCN(c4ncc(-c5nnn[nH]5)cn4)CC3(C)C)oc12 [Example I-331],1.3 nM,1800 nM,2.8 nM,> 2000 nM,–,–
Cc1cncc(N2CCN(C(=O)c3cc4nc(-c5ccc(Cl)c(F)c5)cc(C(C)(C)C)c4o3)C(C)(C)C2=O)n1 [Example I-334],1.4 nM,> 2000 nM,1.6 nM,> 2000 nM,–,–
CC(C)(C)c1cc(-c2ccc(Cl)c(F)c2)nc2cc(C(=O)N3CCNC(=O)CC3(C)C)oc12 [Example I-336],6.3 nM,> 2000 nM,9.6 nM,> 2000 nM,–,–
CC1(C)CCC(c2cc(C(C)(C)C)c3oc(C(=O)N4CCN(C(=O)CC5(C(=O)O)CCC5)CC4(C)C)cc3n2)CC1 [Example I-338],0.3 nM,> 2000 nM,0.5 nM,> 2000 nM,–,–
Cc1ccnc(N2CCN(C(=O)c3cc4nc(C5CCC(C)(C)CC5)cc(C(C)(C)C)c4o3)C(C)(C)C2=O)n1 [Example I-339],1.3 nM,> 2000 nM,3.1 nM,> 2000 nM,–,–
Cn1nccc1S(=O)(=O)N1CCN(C(=O)c2cc3nc(-c4ccc(Cl)c(F)c4)cc(C(C)(C)C)c3o2)C(C)(C)C1=O [Example I-342],94 nM,> 2000 nM,90 nM,> 2000 nM,–,–
CC(C)(C)c1cc(-c2ccc(Cl)c(F)c2)nc2cc(C(=O)N3CCN(c4cccc(-c5nnn[nH]5)n4)CC3(C)C)oc12 [Example I-344],0.1 nM,> 2000 nM,0.2 nM,> 2000 nM,–,–
CC1(C)CCC(c2cc(C(C)(C)C)c3oc(C(=O)N4CCN(c5cccc(-c6nnn[nH]6)n5)CC4(C)C)cc3n2)CC1 [Example I-345],0.3 nM,> 2000 nM,0.7 nM,> 2000 nM,–,–
CC1(C)CCC(c2cc(C(C)(C)C)c3oc(C(=O)N4CCN(c5ncc(-c6nnn[nH]6)cn5)CC4(C)C)cc3n2)CC1 [Example I-346],1.6 nM,2100 nM,4.1 nM,1000 nM,–,–
CC(C)(C)c1cc(-c2ccc(Cl)c(F)c2)nc2cc(C(=O)N3CCN(S(C)(=O)=O)C(=O)C3(C)C)oc12 [Example I-353],38 nM,> 2000 nM,34 nM,> 2000 nM,–,–
CC1(C)CCC(c2cc(C(C)(C)C)c3oc(C(=O)N4CCN(C(=O)CCC(C)(C)C(=O)O)CC4(C)C)cc3n2)CC1 [Example I-354],0.3 nM,> 2000 nM,0.4 nM,> 2000 nM,–,–
Cc1ccc(N2CCN(C(=O)c3cc4nc(-c5ccc(Cl)c(F)c5)cc(C(C)(C)C)c4o3)C(C)(C)C2=O)nn1 [Example I-355],14 nM,> 2000 nM,16 nM,> 2000 nM,–,–
Cn1cc(N2CCN(C(=O)c3cc4nc(-c5ccc(Cl)c(F)c5)cc(C(C)(C)C)c4o3)C(C)(C)C2=O)nn1 [Example I-356],12 nM,> 2000 nM,14.1 nM,> 2000 nM,–,–
CC(C)(C)c1cc(-c2ccc(Cl)c(F)c2)nc2cc(C(=O)N3CCN(c4cccnn4)C(=O)C3(C)C)oc12 [Example I-357],8.3 nM,> 2000 nM,10 nM,> 2000 nM,–,–
Cc1nccnc1N1CCN(C(=O)c2cc3nc(-c4ccc(Cl)c(F)c4)cc(C(C)(C)C)c3o2)C(C)(C)C1=O [Example I-359],37 nM,> 2000 nM,43 nM,> 2000 nM,–,–
CC(C)(C)c1cc(-c2ccc(Cl)c(F)c2)nc2cc(C(=O)N3CCN(c4cnccn4)C(=O)C3(C)C)oc12 [Example I-360],2.4 nM,> 2000 nM,3.7 nM,> 2000 nM,–,–
CC(C)(C)c1cc(-c2ccc(Cl)c(F)c2)nc2cc(C(=O)N3CCN(c4ncccn4)C(=O)C3(C)C)oc12 [Example I-361],2.8 nM,> 2000 nM,4.6 nM,> 2000 nM,–,–
CC(C)(C)c1cc(-c2ccc(Cl)c(F)c2)nc2cc(C(=O)N3CCN(C(=O)C4CC5(CC(C(=O)O)C5)C4)C(=O)C3(C)C)oc12 (stereo not shown) [Example I-362],0.7 nM,–,1 nM,–,> 1100 nM,> 1100 nM
CC(C)(C)c1cc(-c2ccc(Cl)c(F)c2)nc2cc(C(=O)N3CCc4cnc(CC(=O)O)nc4C3(C)C)oc12 [Example I-363],0.6 nM,> 2000 nM,0.9 nM,> 2000 nM,–,–
CC1(C)CCC(c2cc(C(C)(C)C)c3oc(C(=O)N4CCN(C(=O)C5CC6(CC(C(=O)O)C6)C5)CC4(C)C)cc3n2)CC1 (stereo not shown) [Example I-364],1.2 nM,> 2000 nM,1.2 nM,1700 nM,–,–

# More lines, now with the values ahead:
IC50 (PAR2 (HT-29 cells) [1]),IC50 ([2]; Homo sapiens),IC50 (PAR2 (HT-29 cells) [3]),IC50 ([4]; Homo sapiens),IC50 [2],IC50 [4],SMILES
16 nM,> 2000 nM,22 nM,> 2000 nM,–,–,CC(C)(C)c1cc(-c2ccc(Cl)cc2)nc2cc(C(=O)N3CCN(c4ccncc4)C(=O)C3(C)C)oc12 [Example I-328]
21 nM,> 2000 nM,32 nM,> 2000 nM,–,–,CC(C)(C)c1cc(-c2ccc(Cl)cc2)nc2cc(C(=O)N3CCN(c4ccccn4)C(=O)C3(C)C)oc12 [Example I-330]
0.4 nM,1800 nM,0.7 nM,2000 nM,–,–,CC(C)[C@H](CC(=O)N1CCN(C(=O)c2cc3nc(-c4ccc(Cl)cc4)cc(C(C)(C)C)c3o2)C(C)(C)C1)C(=O)O [Example I-333]
91 nM,> 2000 nM,28.5 nM,> 2000 nM,–,–,CC(C)(C)c1cc(-c2ccc(Cl)c(F)c2)nc2cc(C(=O)N3CCC(=O)NCC3(C)C)oc12 [Example I-335]
0.4 nM,> 2000 nM,0.9 nM,> 2000 nM,–,–,CC(C)(C)c1cc(-c2ccc(Cl)cc2)nc2cc(C(=O)N3CCN(C(=O)CC4(C(=O)O)CCC4)CC3(C)C)oc12 [Example I-337]
0.9 nM,> 2000 nM,1.7 nM,> 2000 nM,–,–,Cc1ccnc(N2CCN(C(=O)c3cc4nc(-c5ccc(Cl)cc5)cc(C(C)(C)C)c4o3)C(C)(C)C2=O)n1 [Example I-340]
1.6 nM,> 2000 nM,4.4 nM,1700 nM,–,–,CC(C)(C)c1cc(-c2ccc(Cl)cc2)nc2cc(C(=O)N3CCN(c4ncc(-c5nnn[nH]5)cn4)CC3(C)C)oc12 [Example I-341]
0.2 nM,1700 nM,0.4 nM,2100 nM,–,–,CC(C)[C@H](CC(=O)N1CCN(C(=O)c2cc3nc(-c4ccc(Cl)c(F)c4)cc(C(C)(C)C)c3o2)C(C)(C)C1)C(=O)O [Example I-343]
290 nM,> 2000 nM,500 nM,> 2000 nM,–,–,CN(CC(=O)O)CC(=O)N1CCN(C(=O)c2cc3nc(-c4ccc(Cl)cc4)cc(C(C)(C)C)c3o2)C(C)(C)C1 [Example I-347]
67 nM,> 2000 nM,38 nM,> 2000 nM,–,–,CC(C)(C)c1cc(-c2ccc(Cl)c(F)c2)nc2cc(C(=O)N3CCN(c4ccnnc4)CC3(C)C)oc12 [Example I-348]
80 nM,> 2000 nM,75 nM,> 2000 nM,–,–,CC(C)(C)c1cc(-c2ccc(Cl)cc2)nc2cc(C(=O)N3CCN(c4ccnnc4)CC3(C)C)oc12 [Example I-349]
0.08 nM,> 2000 nM,0.3 nM,> 2000 nM,–,–,CC(C)(C)c1cc(-c2ccc(Cl)cc2)nc2cc(C(=O)N3CCN(c4cccc(-c5nnn[nH]5)n4)CC3(C)C)oc12 [Example I-350]
5.1 nM,> 2000 nM,9 nM,> 2000 nM,–,–,CC(C)(C)c1cc(-c2ccc(Cl)c(F)c2)nc2cc(C(=O)N3CCN(c4ncccc4C(=O)O)CC3(C)C)oc12 [Example I-351]
2.1 nM,> 2000 nM,3.1 nM,2000 nM,–,–,Cc1ccc(C(=O)O)c(N2CCN(C(=O)c3cc4nc(-c5ccc(Cl)c(F)c5)cc(C(C)(C)C)c4o3)C(C)(C)C2)n1 [Example I-352]
0.2 nM,> 2000 nM,0.3 nM,> 2000 nM,–,–,CC(C)(C)c1cc(-c2ccc(Cl)c(F)c2)nc2cc(C(=O)N3CCN(c4nc(C(=O)O)ccc4Cl)CC3(C)C)oc12 [Example I-365]
0.8 nM,> 2000 nM,1.1 nM,> 2000 nM,–,–,CC(C)(CCC(=O)N1CCN(C(=O)c2cc3nc(-c4ccc(Cl)cc4)cc(C(C)(C)C)c3o2)C(C)(C)C1)C(=O)O [Example I-366]

# Reference: US20180057505A1, “BICYCLIC HETEROARYL COMPOUNDS USEFUL AS INHIBITORS OF THE PAR-2 SIGNALING PATHWAY” (VERTEX PHARMACEUTICALS INCORPORATED, priority 2015, published 2018)
